Test results reported in BindingDB's records for doi:10.1021/jm050686b (Rheinische Friedrich-Wilhelms-Universitat Bonn, 2005).

Target: Papain (Carica papaya) (UniProt P00784)
Assay: Enzyme activities were calculated from kinetic measurements performed by spectrophotometric detection of the product p-nitroaniline (pNA) at wavelength of 405 nm. Progress curves were monitored over 10 min. Rate was determined for 7 different inhibitor concentrations in duplicate. The apparent inhibition constant, Ki (app) was determined by fitting

Papain (Carica papaya), sequence (P00784 whole entry, looked up): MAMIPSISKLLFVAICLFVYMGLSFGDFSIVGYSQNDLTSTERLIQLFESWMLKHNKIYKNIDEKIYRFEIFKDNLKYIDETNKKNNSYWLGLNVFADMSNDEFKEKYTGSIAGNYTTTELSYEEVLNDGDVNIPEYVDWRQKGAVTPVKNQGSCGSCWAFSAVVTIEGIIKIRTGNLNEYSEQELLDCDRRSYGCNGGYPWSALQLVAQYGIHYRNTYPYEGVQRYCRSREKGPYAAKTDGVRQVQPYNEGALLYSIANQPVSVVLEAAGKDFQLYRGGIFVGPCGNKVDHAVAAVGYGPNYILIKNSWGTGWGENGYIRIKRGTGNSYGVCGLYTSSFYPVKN

Compound CC(C)(C)OC(=O)N[C@@H](Cc1ccsc1)C(=O)NCC#N [tert-butyl N-[(1S)-1-[(cyanomethyl)carbamoyl]-2-(thiophen-3-yl)ethyl]carbamate] has a Ki of 45 µM.
